Measured values: PubChem BioAssay (NCI)
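Exposure lasted 48 hours, with cells grown in 96-well plates and compounds tested at five concentrations. GI50 marks 50% less growth. At the TGI there is no net growth.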

Assays:
Experiment in all cases: inhibition of tumour cell growth, NCI panel, 48 h
NCI/ADR-RES ovarian = system: NCI/ADR-RES ovarian
K-562 leukemia = system: K-562 leukemia
BT-549 breast = system: BT-549 breast
HOP-92 NSCLC = system: HOP-92 NSCLC
CAKI-1 renal = system: CAKI-1 renal
A549 NSCLC = system: A549 NSCLC
HOP-62 NSCLC = system: HOP-62 NSCLC
SF-295 CNS = system: SF-295 CNS
SK-OV-3 ovarian = system: SK-OV-3 ovarian
NCI-H460 lung = system: NCI-H460 lung
SNB-75 CNS = system: SNB-75 CNS
MALME-3M melanoma = system: MALME-3M melanoma
786-0 renal = system: 786-0 renal
HL-60(TB) leukemia = system: HL-60(TB) leukemia
HCT-15 colon = system: HCT-15 colon
SN12C renal = system: SN12C renal
A498 renal = system: A498 renal
KM12 colon = system: KM12 colon
OVCAR-3 ovarian = system: OVCAR-3 ovarian
SK-MEL-5 melanoma = system: SK-MEL-5 melanoma
TK-10 renal = system: TK-10 renal
MCF7 breast = system: MCF7 breast
ACHN renal = system: ACHN renal
MDA-MB-231 breast = system: MDA-MB-231 breast
OVCAR-8 ovarian = system: OVCAR-8 ovarian
SF-539 CNS = system: SF-539 CNS
RPMI-8226 leukemia = system: RPMI-8226 leukemia
U251 CNS = system: U251 CNS
SK-MEL-28 melanoma = system: SK-MEL-28 melanoma
SR leukemia = system: SR leukemia
MDA-MB-435 = system: MDA-MB-435
SNB-19 CNS = system: SNB-19 CNS
M14 melanoma = system: M14 melanoma
SW-620 colon = system: SW-620 colon
RXF 393 renal = system: RXF 393 renal
UACC-257 melanoma = system: UACC-257 melanoma
SF-268 CNS = system: SF-268 CNS
COLO 205 colon = system: COLO 205 colon
EKVX NSCLC = system: EKVX NSCLC
HCC-2998 colon = system: HCC-2998 colon
HT29 colon = system: HT29 colon
CCRF-CEM leukemia = system: CCRF-CEM leukemia
NCI-H522 lung = system: NCI-H522 lung
IGROV1 ovarian = system: IGROV1 ovarian
MOLT-4 leukemia = system: MOLT-4 leukemia
OVCAR-5 ovarian = system: OVCAR-5 ovarian
LOX IMVI melanoma = system: LOX IMVI melanoma
SK-MEL-2 melanoma = system: SK-MEL-2 melanoma
UACC-62 melanoma = system: UACC-62 melanoma
NCI-H226 lung = system: NCI-H226 lung
PC-3 prostate = system: PC-3 prostate
OVCAR-4 ovarian = system: OVCAR-4 ovarian
DU-145 prostate = system: DU-145 prostate
HCT-116 colon = system: HCT-116 colon
NCI-H23 lung = system: NCI-H23 lung
UO-31 renal = system: UO-31 renal

Cn1ccc(=O)c2c(O)c3ccccc3c(O)c21
GI50 (NCI/ADR-RES ovarian): > 100 µM
TGI (NCI/ADR-RES ovarian): > 100 µM
GI50 (K-562 leukemia): > 100 µM
TGI (K-562 leukemia): > 100 µM
GI50 (BT-549 breast): > 100 µM
TGI (BT-549 breast): > 100 µM
GI50 (HOP-92 NSCLC): > 100 µM
TGI (HOP-92 NSCLC): > 100 µM
GI50 (CAKI-1 renal): 57 µM
TGI (CAKI-1 renal): > 100 µM
GI50 (A549 NSCLC): > 93.1 µM
TGI (A549 NSCLC): > 100 µM
GI50 (HOP-62 NSCLC): 64.5 µM
TGI (HOP-62 NSCLC): > 100 µM
GI50 (SF-295 CNS): 64.3 µM
TGI (SF-295 CNS): > 100 µM
GI50 (SK-OV-3 ovarian): > 94.2 µM
TGI (SK-OV-3 ovarian): > 100 µM
GI50 (NCI-H460 lung): > 69 µM
TGI (NCI-H460 lung): > 100 µM
GI50 (SNB-75 CNS): > 100 µM
TGI (SNB-75 CNS): > 100 µM
GI50 (MALME-3M melanoma): > 100 µM
TGI (MALME-3M melanoma): > 100 µM
GI50 (786-0 renal): > 100 µM
TGI (786-0 renal): > 100 µM
GI50 (HL-60(TB) leukemia): > 100 µM
TGI (HL-60(TB) leukemia): > 100 µM
GI50 (HCT-15 colon): > 66.1 µM
TGI (HCT-15 colon): > 100 µM
GI50 (SN12C renal): 78.1 µM
TGI (SN12C renal): > 100 µM
GI50 (A498 renal): 20.2 µM
TGI (A498 renal): > 100 µM
GI50 (KM12 colon): > 70.1 µM
TGI (KM12 colon): > 100 µM
GI50 (OVCAR-3 ovarian): > 100 µM
TGI (OVCAR-3 ovarian): > 100 µM
GI50 (SK-MEL-5 melanoma): 18.3 µM
TGI (SK-MEL-5 melanoma): > 52.4 µM
GI50 (TK-10 renal): > 94.9 µM
TGI (TK-10 renal): > 100 µM
GI50 (MCF7 breast): > 100 µM
TGI (MCF7 breast): > 100 µM
GI50 (ACHN renal): 35.3 µM
TGI (ACHN renal): > 100 µM
GI50 (MDA-MB-231 breast): 99.1 µM
TGI (MDA-MB-231 breast): > 100 µM
GI50 (OVCAR-8 ovarian): > 58.6 µM
TGI (OVCAR-8 ovarian): > 100 µM
GI50 (SF-539 CNS): > 82.3 µM
TGI (SF-539 CNS): > 100 µM
GI50 (RPMI-8226 leukemia): 34.5 µM
TGI (RPMI-8226 leukemia): > 100 µM
GI50 (U251 CNS): > 100 µM
TGI (U251 CNS): > 100 µM
GI50 (SK-MEL-28 melanoma): > 100 µM
TGI (SK-MEL-28 melanoma): > 100 µM
GI50 (SR leukemia): 44.5 µM
TGI (SR leukemia): > 100 µM
GI50 (MDA-MB-435): > 100 µM
TGI (MDA-MB-435): > 100 µM
GI50 (SNB-19 CNS): > 40.2 µM
TGI (SNB-19 CNS): > 100 µM
GI50 (M14 melanoma): 97.5 µM
TGI (M14 melanoma): > 100 µM
GI50 (SW-620 colon): 59.9 µM
TGI (SW-620 colon): > 100 µM
GI50 (RXF 393 renal): > 100 µM
TGI (RXF 393 renal): > 100 µM
GI50 (UACC-257 melanoma): > 100 µM
TGI (UACC-257 melanoma): > 100 µM
GI50 (SF-268 CNS): > 100 µM
TGI (SF-268 CNS): > 100 µM
GI50 (COLO 205 colon): 56.9 µM
TGI (COLO 205 colon): > 100 µM
GI50 (EKVX NSCLC): > 100 µM
TGI (EKVX NSCLC): > 100 µM
GI50 (HCC-2998 colon): 20.3 µM
TGI (HCC-2998 colon): > 100 µM
GI50 (HT29 colon): 99.9 µM
TGI (HT29 colon): > 100 µM
TGI (CCRF-CEM leukemia): > 100 µM
GI50 (NCI-H522 lung): > 94 µM
TGI (NCI-H522 lung): > 100 µM
GI50 (IGROV1 ovarian): > 100 µM
TGI (IGROV1 ovarian): > 100 µM
GI50 (MOLT-4 leukemia): 80.9 µM
TGI (MOLT-4 leukemia): > 100 µM
GI50 (OVCAR-5 ovarian): > 100 µM
TGI (OVCAR-5 ovarian): > 100 µM
GI50 (LOX IMVI melanoma): 52.7 µM
TGI (LOX IMVI melanoma): > 100 µM
GI50 (SK-MEL-2 melanoma): > 100 µM
TGI (SK-MEL-2 melanoma): > 100 µM
GI50 (UACC-62 melanoma): > 88.6 µM
TGI (UACC-62 melanoma): > 100 µM
GI50 (NCI-H226 lung): > 44.6 µM
TGI (NCI-H226 lung): > 100 µM
GI50 (PC-3 prostate): > 26.6 µM
TGI (PC-3 prostate): > 100 µM
GI50 (OVCAR-4 ovarian): > 100 µM
TGI (OVCAR-4 ovarian): > 100 µM
GI50 (DU-145 prostate): > 100 µM
TGI (DU-145 prostate): > 100 µM
GI50 (HCT-116 colon): 42.2 µM
TGI (HCT-116 colon): > 100 µM
GI50 (NCI-H23 lung): > 100 µM
TGI (NCI-H23 lung): > 100 µM
GI50 (UO-31 renal): > 100 µM
TGI (UO-31 renal): > 100 µM
